In BindingDB's records for doi:10.1016/j.ejmech.2019.111853 (Hangzhou Institute of Innovative Medicine, 2020):

How the values were obtained:
[1] = Inhibition of CXCR2-mediated chemotaxis in mouse BAF3 cells
[2] = Antagonist activity at CXCR2 in human neutrophils assessed as reduction in GRO-alpha mediated chemotaxis

| Structure (SMILES) | IC50 [1] [nM] | IC50 [2] [nM] |
| --- | --- | --- |
| CC[C@@H](Nc1c(Nc2cccc(C(=O)N3CCN4CCC[C@H]4C3)c2O)c(=O)c1=O)c1ccc(C)o1 | 0.1 | – |
| COC(=O)CSc1ccc(C(=O)Nc2ccc(F)cc2)cn1 [[5-(4-Fluoro-phenylcarbamoyl)-pyridin-2-ylsulfanyl]-acetic acid methyl ester] | – | 42 |
